“Also recorded” adds a separate entry of the source.
B1: heme:Hx: heme-hemopexin complex (1 mM) injected into striatum (protein, UniProt P02790 24-462, looked up)
Hemopexin: TPLPPTSAHGNVAEGETKPDPDVTERCSDGWSFDATTLDDNGTMLFFKGEFVWKSHKWDRELISERWKNFPSPVDAAFRQGHNSVFLIKGDKVWVYPPEKKEKGYPKLLQDEFPGIPSPLDAAVECHRGECQAEGVLFFQGDREWFWDLATGTMKERSWPAVGNCSSALRWLGRYYCFQGNQFLRFDPVRGEVPPRYPRDVRDYFMPCPGRGHGHRNGTGHGNSTHHGPEYMRCSPHLVLSALTSDNHGATYAFSGTHYWRLDTSRDGWHSWPIAHQWPQGPSAVDAAFSWEEKLYLVQGTQVYVFLTKGGYTLVSGYPKRLEKEVGTPHGIILDSVDAAFICPGSSRLHIMAGRRLWWLDLKSGAQATWTELPWPHEKVDGALCMEKSLGPNSCSANGPGLYLIHGPNLYCYSDVEKLNAAKALPQPQNVTSLLGCTH
modifications: heme complex
notes: heme-hemopexin complex (1 mM) injected into striatum

Legend:
C57BL/6J mice [1] = test: striatal injection model, MRI (T2, ASL, DWI); assay type: in vivo; conditions: for quantification of edema size and perfusion: 24, 48 and 72 hours after striatal injection, n=4 per group, FIG. 14; for radiological changes (T2, ADC map, ASL): 24 hours after striatal injection, FIG. 13
Text: (§1) Wild-type male C57BL/6J mice (10-12 weeks) were obtained from Charles River (Sulzfeld, Germany) and maintained at the animal facility of the University of Zurich (LASC) and treated in accordance with the guidelines of the Swiss Federal Veterinary Office.
(§2) Mice were anesthetized with isoflurane (4-5% for induction, 1-2% for maintenance; Baxter Healthcare Co. Deerfield, IL, USA) evaporated in 100% oxygen. Throughout the surgical procedure, body temperature was monitored with a rectal probe and maintained constant with the use of an electronic thermostat-controlled warming blanket. Anesthetized mice were placed in a motorized stereotaxic frame (Stoelting, Dublin, Ireland) and a 1 cm long midline skin incision was made. After removal of the soft tissue covering the skull, the frame referenced to bregma and a small burrhole was drilled above the entry point for the target. Then a 33G needle was slowly advanced (0.1 mm/s) into the striatum (bregma coordinates: 2 mm ML, 0.5 mm AP, 3.5 mm DV) followed by injection of 10 μL heme-albumin (1 mM), haptoglobin (5 mM) (protein control group) or heme-hemopexin (1 mM) with an infusion rate of 100 nl/s. The needle was left in place for 5 minutes, then removed slowly and the skin incision was closed with a suture. After the surgical procedure, the animals were placed in a heated wake up box and monitored until they were fully recovered and could be transferred back to their homecage.
Mice were anesthetized with isoflurane (4-5% for induction, 1-2% for maintenance; Baxter Healthcare Co. Deerfield, IL, USA) evaporated in 100% oxygen. Throughout the imaging procedure, body temperature was monitored with a rectal probe and maintained constant with the use of a warming blanket and respiratory rate was recorded by plethysmography. Mice were placed into a 7 T small animal MRI scanner (Brucker, Germany). T2, ASL and DWI images were recorded according to a standardized protocol.

C57BL/6J mice [2] = test: striatal injection model, behavioural testing (open field, rotarod, beam walk); assay type: in vivo; conditions: 24 hours after striatal injection of 10 μL, 1 mM; n=6 per group; FIG. 12
Text: as §1
as §2, with “The needle was left in place for 5 minutes, then removed slowly and the skin incision was closed with a suture.” left out
The open field exploration tests were conducted in four identical square arenas (40×40×35 cm high) made of opaque acrylic glass, located in a testing room under diffused lighting (approximately 35 Ix as measured in the center of the arenas). […] The total distance moved during 10 minutes (in cm), beginning after a 5 minutes acclimatization phase was measured.
For the rotarod behavioural testing the mice are placed on a rotating cylinder and therefore forced to walk. […] The time until the mice fall off the cylinder is measured.
For discrete neurological deficits, mice were subjected to a beam walk test. […] During the assessment, the motor function was scored by two investigators blinded to treatment.

CSF-Hb = target: T1, CSF-Hb (Homo sapiens, UniProt P68871+P69905); test: oxidative potential of patient CSF after aSAH (TBARS, MDA formation) with addition of Hp or hemopexin; assay type: biochemical; conditions: added at equimolar concentration, patient CSF of high risk phase week 0.5-2, FIG. 5D
T1 construct: from tissue; host or cells: cerebrospinal fluid of patients after aSAH (high-risk phase, week 0.5-2)
T1 sequence (P69905 2-142 limits assumed): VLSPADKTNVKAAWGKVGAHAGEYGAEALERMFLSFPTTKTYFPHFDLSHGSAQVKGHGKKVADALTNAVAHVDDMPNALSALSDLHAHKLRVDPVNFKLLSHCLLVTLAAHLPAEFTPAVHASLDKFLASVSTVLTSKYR
T1 sequence (P68871 2-147 limits assumed): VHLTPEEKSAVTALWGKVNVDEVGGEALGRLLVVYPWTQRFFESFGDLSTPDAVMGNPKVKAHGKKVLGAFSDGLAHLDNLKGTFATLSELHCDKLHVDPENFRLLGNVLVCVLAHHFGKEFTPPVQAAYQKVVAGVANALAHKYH
Procedure: Hb used in ex vivo experiments was purified from expired human blood concentrates as previously described (Elmer et al., 2009). Hb concentrations were determined by spectral deconvolution as described above and are given as molar concentrations of total heme (1 M Hb tetramer is equivalent to 4 M heme). Hx was used in equimolar concentration to the concentration of heme measured in the test sample. For all Hb used in these studies, the fraction of ferrous oxyHb (HbFe2+O2) was always greater than 98% as determined by spectrophotometry. Purified haptoglobin (phenotype 1-1) and hemopexin from human plasma was obtained from CSL Behring.
The oxidative potential of CSF samples was quantified by measuring the formation of malondialdehyde (MDA) as the final product of lipid peroxidation after incubation with a well-defined reconstituted lipoprotein (rLP, obtained from CSL Behring, Bern, Switzerland) (FIG. 7G). Using a 96-well plate, 25 μL CSF were mixed with 5 μL rLP (3 mg/mL) and incubated at 37° C. for 24 hours. Subsequently, the concentration of MDA was measured using a thiobarbituric acid reactive substance (TBARS) assay. In short 125 μL of 750 mM trichloroacetic acid in 1 M HCl was added to the samples, followed by short vortexing and subsequent addition of 100 μL 25 mM 2-thiobarbituric acid in 1 M NaOH.
After an incubation period at 80° for 60 min, the TBARS in the supernatant were quantified. For absolute quantification of MDA, the absorption at 600 nm was subtracted from the absorption at 532 nm and the concentration was calculated with the molar extinction 9 coefficient of […]. To achieve a more sensitive but relative quantification, the fluorescence emission was measured at 550 nm, using 510 nm as excitation wavelength.

porcine basilar arteries = test: vascular function assay, porcine basilar arteries pre-contracted with PGF2α
Procedure: The vascular function assay (FIG. 7E) was performed using fresh porcine basilar arteries obtained from a local abattoir (n=12). Vessels were pre stretched to reach 8 the optimal passive pretension as previously published (Hugelshofer et al., 2020). Then, 10 μM prostaglandin F2α (PGF2α; Sigma, Buchs, Switzerland) was used as a pre-contracting agent. In order to determine the maximum possible tension in absence of endogenous NO, L-N5-(1-Iminoethyl) ornithine hydrochloride (L-NIO; Sigma-Aldrich, Saint Louis, US-MO) at a concentration of 10 μM was added at the end of the experiment. The recorded tension was normalized to the individual NO reserve capacity of the respective vessel, i.e. the baseline tension after addition of PGF2α (0%) and the tension after addition of L-NIO at the end of the experiment (100%) (FIG. 7F). Damaged vessels with a continuous loss in tension over the duration of the experiment, resulting in a PGF2α max/L-NIO max ratio below 0.7, were excluded from the analysis (FIG. 7F). A first series of experiments was conducted to evaluate the vasoconstrictive potential of the patient CSF in the high-risk phase for SAH-SBI after aSAH and to assess the specific role of oxyHb in this process. […] In a second series of experiments, the influence of an increasing exposure to Hb on the vascular tension was assessed. […]

[3] = formation of heme:Hx complexes in the CSF; conditions: cell-free heme within the subarachnoid space
[4] = read-out: ability to bind heme with high affinity (Kd); cited from earlier work

| Molecule | quantification of edema size and perfusion (C57BL/6J mice [1]) | neurological function (open-field, rotarod, beamwalk testing) (C57BL/6J mice [2]) | MDA formation (lipid peroxidation) (CSF-Hb) | other results |
| --- | --- | --- | --- | --- |
| C=CC1=C(C)c2cc3[n-]c(cc4[n-]c(cc5nc(cc1n2)C(C)=C5C=C)c(C)c4CCC(=O)O)c(CCC(=O)O)c3C.[Fe+2] [heme] | formation of a cerebral edema and a regionally decreased perfusion | impaired neurological function; also recorded: impaired neurobehavioral function | – | radiological changes (T2, ADC map, ASL) (C57BL/6J mice [1]): perilesional edema, a diffusion restriction in the ADC map and a focal perfusion deficit |
| Hp1-1: Purified haptoglobin (phenotype 1-1) from human plasma obtained from CSL Behring | – | – | effectively attenuated MDA formation | MDA formation (lipid peroxidation) (CSF-Hb; listed as haptoglobin): partial inhibition; contractile force of basilar arteries (anti-vasospastic effect) (porcine basilar arteries; Hb dose escalation with equimolar haptoglobin, repeated measures ANOVA p<0.001, FIG. 5C): significantly attenuated the contractile force |
| oxyHb: Hb purified from expired human blood concentrates; fraction of ferrous oxyHb greater than 98% [reference compound] | – | – | – | oxyHb concentration reaching maximum contraction (porcine basilar arteries; FIG. 4A): 10^−5 M |
| hemopexin: Purified hemopexin from human plasma obtained from CSL Behring; heme-scavenger protein | – | abrogates the heme-mediated impairment of neurological function | even stronger attenuation of MDA formation; also recorded: virtually blocked the formation of MDA; also recorded: surpassed the antioxidant function of haptoglobin | period of exposure sufficient to form detectable heme:Hx complexes in the CSF [3]: at least 2 minutes; Kd [4]: < 1 pM |
| B1 | absent | no impairment in neurobehavioral activity | – | radiological changes (T2, ADC map, ASL) (C57BL/6J mice [1]; listed as heme:Hpx): only minor radiological changes; also recorded: largely absent |

Reference: patent publication US20250339492A1, “METHOD OF TREATING OR PREVENTING AN ADVERSE SECONDARY NEUROLOGICAL OUTCOME FOLLOWING A HAEMORRHAGIC STROKE” (CSL BEHRING AG, priority 2021, published 2025)
